Measured values as given in patent US20180135022A1, “METHOD FOR PRODUCING ARTIFICIAL SYNCYTIOTROPHOBLAST AND PROGENITOR CELL THEREOF” (Sumitomo Chemical Company, Limited, priority 2015, published 2018).
Read-outs that look alike come from different tables or passages of the source. Each block holds one compound with its values, some of them ahead of it.

Experiments:
[1] = test system: KhES-1 cells; assay: Syncytin gene mRNA by real-time PCR after differentiation culturing, Example 3; assay type: cell-based, human; settings: single agent added to Basal differentiation medium B (0.1 μM S26948, 10 μM GW 1929, 0.1 μM CGP 7930, 10 nM SR 11237 or 1 nM retinoic acid), day 5; in comparison with Control
Method: According to the method described in (1) in Example 2, KhES-1 cells were maintenance cultured, and then subjected to the MEF removing operation. […] S26948, GW 1929, CGP 7930 and SR 11237 were dissolved in DMSO so that they were respectively 100 mM, and retinoic acid was dissolved in DMSO so that it was 10 mM, and each DMSO solution was added to Basal differentiation medium B.
On day 5 of the culturing of the culture using the differentiation medium, total RNA was extracted from cells by using RNeasy Micro Kit (QIAGEN). The obtained total RNA was reverse transcribed by using SuperScript III (Invitrogen), and by real-time PCR using the obtained DNA as a template, TaqMan probe (Applied biosystems) and TaqMan Fast advanced master mix (Applied biosystems), the expression amount of Syncytin gene which is a marker gene of syncytiotrophoblast was examined. For the cells obtained in each culturing, the mRNA amount of Syncytin gene and the mRNA amount of GAPDH gene which is a house keeping gene were determined by real-time PCR. The value obtained by dividing the mRNA amount of Syncytin gene by the mRNA amount of GAPDH gene is defined as a correction value of mRNA amount of Syncytin gene, and taking the Syncytin gene mRNA amount correction value in cells cultured in Basal differentiation medium B (Control) as 1, a Syncytin gene mRNA amount correction value in cells cultured in each of other culture media was shown as a relative expression amount. The operation from the cell culturing to measurement of mRNA amount was repeated three times. In FIG. 2, a standard error of relative expression amount is indicated by an error bar. The relative expression amount having a statistically significant difference with respect to the relative expression amount of Control is marked with asterisks (** means a P value of 0.001 or more and less than 0.01, and *** means a P value of less than 0.001). In comparison with the cells cultured in Basal differentiation medium B (Control), the relative expression amount of Syncytin gene increased in cells that were cultured in a differentiation medium supplemented with either of S26948 (2-1) or GW 1929 (2-2) that is a PPARγ agonist, CGP 7930 (2-3) that is a GABABR positive allosteric modulator, SR 11237 (2-4) that is an RXR agonist or retinoic acid (2-5) that is an RAR agonist.

[2] = test system: GCM1-GFP knock-in human ES cells; assay: Percentage of GFP positive cells (GCM1 gene expression) after differentiation culturing, Example 2; assay type: cell-based; settings: day 6
Method: S26948, GW 1929, CGP 7930 and SR 11237 were dissolved in DMSO so that they were respectively 1 mM, and retinoic acid was dissolved in DMSO so that it was 10 mM, and each DMSO solution was added to Basal differentiation medium A.
On day 6 of the culturing using the differentiation medium, cells were washed twice with PBS (Invitrogen), and fixed with 4% paraformaldehyde (Wako) for 15 minutes. After subjecting the cells to a membrane permeabilizing treatment for 5 minutes by using PBS supplemented with 0.3% Triton X-100 (Wako), the cells were washed three times with PBS. Then after blocking the cells for 1 hour to 2 hours with 3% Bovine Serum Albumin (BSA, Sigma-Aldrich), the cells were immunostained by using 5 μg/ml chicken anti-GFP antibody (Abcam), 2 μg/ml goat anti-chicken IgG antibody Alexa 488 (Life technologies) and 1 μg/ml Hoechst 33342 (DOJINDO). For the obtained stained sample, the percentage of the GFP positive cells indicating expression of GCM1 gene was quantified by using a fully automatic image analyzer Arrayscan (Thermo Scientific).

[3] = test system: cell layer of cells differentiated from 201B7 cells; settings: human, 120 min
Method: (§1) The culture medium in the insert and in the multiple well plate was replaced by Hanks' Balanced Salt Solution (HBSS) (no phenol red, Life Technologies), and incubated for 30 minutes to 45 minutes at 37° C. […] The culture medium in the insert (apical side) is replaced by HBSS containing a test substance, and cultured at 37° C. under stirring at 300 rpm.
(§2) After 120 minutes from addition of the test substance, 100 μl of HBSS containing the test substance was collected from inside the multiple well plate, and the same amount of HBSS was added to the collected HBSS. By quantifying the test substance in the culture medium in the multiple well plate by LC-MS, the permeability of the test substance in the cell layer was evaluated. A value obtained by dividing the permeation amount of each test substance by the permeation amount of antipyrine is shown as an in vitro relative permeation amount in Table 5.

[4] = test system: term placenta; settings: cited from earlier work
[5] = test system: cell layer of cells differentiated from KhES-1 cells; settings: human, 120 min
Method: (§3) After two days from the seeding to the cell culture insert, the electric resistance (Ω) of the cell layer formed on the cell culture insert was measured by using a Millicell ERS-2 (Millipore), and from the obtained measurement value, the electric resistance of the blank in which cells are not seeded was subtracted, and the resultant value was multiplied with the area of the membrane filter (cm^2) to determine a transepithelial electric resistance (TEER, Ω·cm^2).
(§4) The culture medium in the insert and in the multiple well plate was replaced by Hanks' Balanced Salt Solution (HBSS) (no phenol red, Life Technologies), and incubated for 30 minutes to 45 minutes at 37° C. 5% CO2. The culture medium in the insert (apical side) is replaced by HBSS containing a test substance, and cultured at 37° C. under stirring at 300 rpm.
(§5) After 120 minutes from addition of the test substance, 100 μl of HBSS containing the permeated test substance was collected from inside the multiple well plate, and the same amount of HBSS was added to the collected HBSS. By quantifying the test substance in the culture medium in the multiple well plate by LC-MS, the permeability of the test substance in the cell layer was evaluated. A value obtained by dividing the permeation amount of each test substance by the permeation amount of antipyrine is shown as an in vitro relative permeation amount in Table 4.

[6] = test system: GCM1-GFP knock-in human ES cells; assay: Percentage of GFP positive cells at different retinoic acid concentrations, Example 9; assay type: cell-based; settings: day 5
[7] = test system: cell layer of cells differentiated from KhES-1 cells; assay: Cell layer permeability test on cell culture insert, cells differentiated from human ES cells, Example 13; settings: permeation amount after 120 minutes divided by that of antipyrine; apical side dosing, HBSS, LC-MS; cells from KhES-1
Method: as §3, §4, §5

[8] = test system: cell layer of cells differentiated from 201B7 cells; assay: Cell layer permeability test on cell culture insert, cells differentiated from human iPS cells, Example 15; settings: permeation amount after 120 minutes divided by that of antipyrine; apical side dosing, HBSS, LC-MS; cells from iPS line 201B7
Method: as §1, §2

[9] = 1 μM added to Basal differentiation medium A (3 ng/ml BMP4), in comparison with Control A (0.1% DMSO)
[10] = Table 4, excerpted from Li, H. et al. Arch. Toxicol. 2013
[11] = Table 5, excerpted from Li, H. et al. Arch. Toxicol. 2013

SMILES: CN(CCOc1ccc(C[C@H](Nc2ccccc2C(=O)c2ccccc2)C(=O)O)cc1)c1ccccn1 [GW 1929]
relative expression amount of Syncytin gene [1]: increased
increase in the percentage of the GFP positive cells [2, 9]: about 20%

SMILES: COC(=O)C(Cc1ccc(OCCn2c(=O)sc3cc(C(=O)c4ccccc4)ccc32)cc1)C(=O)OC [S26948]
relative expression amount of Syncytin gene [1]: increased
increase in the percentage of the GFP positive cells [2, 9]: about 20%

SMILES: Cn1c(=O)c2c(ncn2C)n(C)c1=O [Caffeine]
In vitro relative permeation amount [3]: 1.1
Ex vivo relative permeation amount (literature value) [4, 10]: 1.5
Ex vivo relative permeation amount (literature value) [4, 11]: 1.5
In vitro relative permeation amount [5]: 1.4

SMILES: CC1(C)CCC(C)(C)c2cc(C3(c4ccc(C(=O)O)cc4)OCCO3)ccc21 [SR 11237]
relative expression amount of Syncytin gene [1]: increased
increase in the percentage of the GFP positive cells [2, 9]: about 20%

SMILES: CC(C)(CO)Cc1cc(C(C)(C)C)c(O)c(C(C)(C)C)c1 [CGP 7930]
relative expression amount of Syncytin gene [1]: increased
increase in the percentage of the GFP positive cells [2, 9]: about 20%

SMILES: CC1=C(/C=C/C(C)=C/C=C/C(C)=C/C(=O)O)C(C)(C)CCC1 [retinoic acid]
increase in the percentage of GFP positive cells ([6]; 1 nM or 10 nM retinoic acid in Basal differentiation medium B, compared with Control without retinoic acid): about 10%
decrease in the percentage of GFP positive cells ([6]; 100 nM or more retinoic acid in Basal differentiation medium B, compared with Control): ≥ 10%
increase in the percentage of the GFP positive cells ([2]; 1 nM retinoic acid (Table 1 prints 1 μM) in Basal differentiation medium A, compared with Control B (no retinoic acid)): about 6%

In vitro relative permeation amount [7]: 0.72
In vitro relative permeation amount [8]: 0.62
SMILES: COc1ccc2c(c1)c(CC(=O)O)c(C)n2C(=O)c1ccc(Cl)cc1 [Indomethacin]
Ex vivo relative permeation amount (literature value) [4, 10]: 0.66
Ex vivo relative permeation amount (literature value) [4, 11]: 0.66

SMILES: Cc1cc(=O)n(-c2ccccc2)n1C [Antipyrine]
In vitro relative permeation amount [3]: 1
Ex vivo relative permeation amount (literature value) [4]: 1
In vitro relative permeation amount [5]: 1

In vitro relative permeation amount [5]: 0.24
SMILES: C[C@H]1O[C@@H](O[C@H]2[C@@H](O)C[C@H](O[C@H]3[C@@H](O)C[C@H](O[C@H]4CC[C@@]5(C)[C@H](CC[C@@H]6[C@@H]5C[C@@H](O)[C@]5(C)[C@@H](C7=CC(=O)OC7)CC[C@]65O)C4)O[C@@H]3C)O[C@@H]2C)C[C@H](O)[C@@H]1O [Digoxin]
Ex vivo relative permeation amount (literature value) [4, 10]: 0.13
